“Also recorded” adds a separate entry of the source.
What was measured:
GABAB receptor [1] = target: T1, GABAB receptor (Rattus norvegicus, UniProt Q9Z0U4); experiment: biochemical
GABAA receptor = experiment: [^3H]muscimol competition binding, rat brain synaptic membranes
Experimental: On the day of the assay, the membrane preparation was quickly thawed, suspended in 40 volumes of ice-cold 50 mM Tris-HCl buffer (pH 7.4) using an UltraTurrax homogenizer and centrifuged at 48,000 g for 10 min at 4° C. This washing step was repeated four times. The final pellet was resuspended in incubation buffer and the binding assay carried out as detailed below.

human ρ1 GABAC receptors = target: T2, human ρ1 GABAC receptors (Homo sapiens, UniProt P24046); experiment: Activity at recombinant GABAC receptors expressed in oocytes; type: cell-based; details: 100 μM, hydrochloride salt
T2 construct: expressed in transfected cells; host or cells: Xenopus laevis oocytes

hGAT-1 = target: T3, hGAT-1 (Homo sapiens, UniProt P30531); experiment: [^3H]GABA uptake assay at human GABA transporters, tsA201 cells; type: cell-based; details: mammalian cells recombinantly expressing hGAT-1
T3 construct: expressed in transfected cells; host or cells: tsA201 cells (transient, PolyFect)
Experimental: (§1) tsA201 cells were cultured in GlutaMAX-I DMEM supplemented with 10% fetal bovine serum, penicillin (100 U/ml), and streptomycin (100 μg/ml) at 37° C. in a humidified atmosphere of 95% air and 5% CO2. […] Quantification was performed by using Microscint™ 20 scintillation fluid (Perkin Elmer) and a Packard TopCount microplate scintillation counter.

hBGT-1 = target: T4, hBGT-1 (Homo sapiens, UniProt P48065); experiment: as above; type: cell-based; details: mammalian cells recombinantly expressing hBGT-1
T4 construct: expressed in transfected cells; host or cells: tsA201 cells (transient, PolyFect)
T4 sequence (P48065 1-614): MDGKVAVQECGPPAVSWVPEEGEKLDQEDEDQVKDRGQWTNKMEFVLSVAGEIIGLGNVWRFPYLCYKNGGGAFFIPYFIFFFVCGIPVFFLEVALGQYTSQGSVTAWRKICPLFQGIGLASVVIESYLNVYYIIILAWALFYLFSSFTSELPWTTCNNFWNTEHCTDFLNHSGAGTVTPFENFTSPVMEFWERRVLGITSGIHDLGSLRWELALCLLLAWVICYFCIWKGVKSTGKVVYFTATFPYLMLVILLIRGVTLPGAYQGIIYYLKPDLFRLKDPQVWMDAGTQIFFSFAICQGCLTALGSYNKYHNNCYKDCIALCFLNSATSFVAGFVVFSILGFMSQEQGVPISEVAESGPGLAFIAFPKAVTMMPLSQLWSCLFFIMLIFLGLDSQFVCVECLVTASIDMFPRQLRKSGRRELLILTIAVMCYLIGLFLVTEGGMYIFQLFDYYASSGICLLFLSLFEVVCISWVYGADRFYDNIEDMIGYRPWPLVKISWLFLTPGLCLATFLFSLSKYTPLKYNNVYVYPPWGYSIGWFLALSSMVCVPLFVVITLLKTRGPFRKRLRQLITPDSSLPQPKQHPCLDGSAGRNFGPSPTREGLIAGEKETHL
Experimental: as §1

hGAT-2 = target: T5, hGAT-2 (Homo sapiens, UniProt Q9NSD5); experiment: as above; type: cell-based; details: mammalian cells recombinantly expressing hGAT-2
T5 construct: expressed in transfected cells; host or cells: tsA201 cells (transient, PolyFect)
T5 sequence (Q9NSD5 1-602): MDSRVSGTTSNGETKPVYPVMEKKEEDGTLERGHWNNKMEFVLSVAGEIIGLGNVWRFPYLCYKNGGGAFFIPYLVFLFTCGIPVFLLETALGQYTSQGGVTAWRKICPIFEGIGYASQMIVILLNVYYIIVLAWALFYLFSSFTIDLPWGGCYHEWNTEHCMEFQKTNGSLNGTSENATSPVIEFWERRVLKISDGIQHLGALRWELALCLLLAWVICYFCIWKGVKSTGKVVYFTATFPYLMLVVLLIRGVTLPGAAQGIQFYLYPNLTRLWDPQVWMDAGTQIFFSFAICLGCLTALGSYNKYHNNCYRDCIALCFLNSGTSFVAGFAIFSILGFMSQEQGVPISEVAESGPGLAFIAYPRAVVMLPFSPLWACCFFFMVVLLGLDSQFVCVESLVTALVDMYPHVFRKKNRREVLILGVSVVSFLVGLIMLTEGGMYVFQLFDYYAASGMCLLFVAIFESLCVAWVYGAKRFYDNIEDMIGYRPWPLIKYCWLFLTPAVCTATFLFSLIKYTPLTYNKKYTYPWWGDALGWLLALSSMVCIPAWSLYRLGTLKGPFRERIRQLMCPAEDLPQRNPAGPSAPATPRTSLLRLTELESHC
Experimental: as §1

hGAT-3 = target: T6, hGAT-3 (Homo sapiens, UniProt P48066); experiment: as above; type: cell-based; details: mammalian cells recombinantly expressing hGAT-3
T6 construct: expressed in transfected cells; host or cells: tsA201 cells (transient, PolyFect)
T6 sequence (P48066 1-632): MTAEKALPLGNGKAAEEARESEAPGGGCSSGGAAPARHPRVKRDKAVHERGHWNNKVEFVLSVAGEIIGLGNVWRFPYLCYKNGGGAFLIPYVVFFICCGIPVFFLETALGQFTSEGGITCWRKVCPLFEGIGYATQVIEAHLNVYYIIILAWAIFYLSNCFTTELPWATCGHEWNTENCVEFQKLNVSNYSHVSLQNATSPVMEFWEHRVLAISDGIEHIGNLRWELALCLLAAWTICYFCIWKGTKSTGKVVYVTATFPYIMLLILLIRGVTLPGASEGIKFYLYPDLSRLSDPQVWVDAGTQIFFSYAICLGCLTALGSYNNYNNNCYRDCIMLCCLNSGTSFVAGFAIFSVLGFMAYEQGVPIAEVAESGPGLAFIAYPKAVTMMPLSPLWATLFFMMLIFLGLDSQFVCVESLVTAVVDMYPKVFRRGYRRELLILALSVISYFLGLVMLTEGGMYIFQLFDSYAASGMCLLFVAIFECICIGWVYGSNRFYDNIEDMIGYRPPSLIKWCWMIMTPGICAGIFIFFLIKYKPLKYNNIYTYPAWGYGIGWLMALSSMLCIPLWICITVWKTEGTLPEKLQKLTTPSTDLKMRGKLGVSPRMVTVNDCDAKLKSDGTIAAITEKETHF
Experimental: as §1

reuptake of GABA = experiment: GABA reuptake, general statement; type: cell-based
Experimental: as §1
(§2) Cortical neurons were cultured essentially as previously described by removing the neopallium of 15-day old NMRI embryos by dissection followed by mild trypsination (Hertz E, Yu A C H, Hertz L, Juurlink B H J and Schousboe A. Preparation of Primary Cultures of Mouse Cortical Neurons, in A Dissection and Tissue Culture Manual of the Nervous System (Shahar A, de Vellis J, Vernadakis A and Haber B eds) pp 183-186, Alan R. Liss, Inc., New York, […]). The neurons were cultured in 10% fetal calf serum and, after 48 h, cytosine arabinoside was added to a final concentration of 20 μM to prevent glial proliferation. […] The stable cell lines are under the selection pressure of blasticidin-S at 5 μg/mL. […] Radioactivity was measured using Microscint™ 20 scintillation fluid (PerkinElmer) and a Packard TopCount microplate scintillation counter.

cortical neurons = experiment: [^3H]GABA uptake in cultured cortical neurons; type: cell-based, mouse
Experimental: as §2

cortical astrocytes = experiment: [^3H]GABA uptake in cultured cortical astrocytes; type: cell-based, mouse
Experimental: Cortical astrocytes were cultured essentially as previously described (Hertz L, Juurlink B H J, Hertz E, Fosmark H and Schousboe A, Preparation of Primary Cultures of Mouse (Rat) Astrocytes, in A Dissection and Tissue Culture Manual of the Nervous System (Shahar A, de Vellis J, Vernadakis A and Haber B eds) pp 105-108, Alan R. Liss, Inc., New York, 1989). The neopallium was removed from new born NMRI mice (Taconic, Denmark) and passed through an 80 μm nylon sieve and cultured in modified Dulbecco's modified Eagle's medium with fetal calf serum. The calf serum was lowered from 20% to 10% over three weeks, and finally the astrocytes were allowed to differentiate using 0.25 mM dibutyryl cyclic AMP during the last week of growth.
Cortical neurons were cultured essentially as previously described by removing the neopallium of 15-day old NMRI embryos by dissection followed by mild trypsination (Hertz E, Yu A C H, Hertz L, Juurlink B H J and Schousboe A. Preparation of Primary Cultures of Mouse Cortical Neurons, in A Dissection and Tissue Culture Manual of the Nervous System (Shahar A, de Vellis J, Vernadakis A and Haber B eds) pp 183-186, Alan R. Liss, Inc., New York, 198). […] Radioactivity was measured using Microscint™ 20 scintillation fluid (PerkinElmer) and a Packard TopCount microplate scintillation counter.

GABAB receptor [2] = target: T1, GABAB receptor; details: 100 μM, rat brain cortical homogenate; hydrochloride salt

T1 sequence (Q9Z0U4 17-960 limits assumed): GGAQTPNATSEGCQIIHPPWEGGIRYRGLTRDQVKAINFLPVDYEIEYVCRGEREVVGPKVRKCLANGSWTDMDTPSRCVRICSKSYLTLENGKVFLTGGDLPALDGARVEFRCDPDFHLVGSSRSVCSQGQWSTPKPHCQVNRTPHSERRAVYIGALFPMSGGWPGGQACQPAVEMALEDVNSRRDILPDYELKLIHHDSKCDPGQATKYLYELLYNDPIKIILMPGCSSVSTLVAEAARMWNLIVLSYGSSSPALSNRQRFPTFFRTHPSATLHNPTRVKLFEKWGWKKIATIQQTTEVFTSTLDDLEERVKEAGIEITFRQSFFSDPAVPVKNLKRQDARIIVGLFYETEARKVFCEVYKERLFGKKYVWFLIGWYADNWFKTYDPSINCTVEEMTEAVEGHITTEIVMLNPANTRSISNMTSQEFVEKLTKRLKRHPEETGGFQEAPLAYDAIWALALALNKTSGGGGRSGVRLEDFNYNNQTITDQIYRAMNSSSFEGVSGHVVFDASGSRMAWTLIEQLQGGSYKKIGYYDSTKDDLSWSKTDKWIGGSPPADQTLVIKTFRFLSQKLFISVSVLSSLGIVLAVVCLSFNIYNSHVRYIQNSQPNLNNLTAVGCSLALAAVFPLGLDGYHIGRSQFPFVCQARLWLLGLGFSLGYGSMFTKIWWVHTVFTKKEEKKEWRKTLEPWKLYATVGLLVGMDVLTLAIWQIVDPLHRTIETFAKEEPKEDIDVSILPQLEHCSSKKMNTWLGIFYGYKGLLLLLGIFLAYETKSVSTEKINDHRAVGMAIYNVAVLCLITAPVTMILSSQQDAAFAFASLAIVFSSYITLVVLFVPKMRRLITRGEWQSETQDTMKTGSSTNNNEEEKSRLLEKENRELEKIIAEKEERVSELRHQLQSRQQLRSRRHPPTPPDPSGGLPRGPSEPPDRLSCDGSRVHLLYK
T1 sequence (O88871 41-940 partner): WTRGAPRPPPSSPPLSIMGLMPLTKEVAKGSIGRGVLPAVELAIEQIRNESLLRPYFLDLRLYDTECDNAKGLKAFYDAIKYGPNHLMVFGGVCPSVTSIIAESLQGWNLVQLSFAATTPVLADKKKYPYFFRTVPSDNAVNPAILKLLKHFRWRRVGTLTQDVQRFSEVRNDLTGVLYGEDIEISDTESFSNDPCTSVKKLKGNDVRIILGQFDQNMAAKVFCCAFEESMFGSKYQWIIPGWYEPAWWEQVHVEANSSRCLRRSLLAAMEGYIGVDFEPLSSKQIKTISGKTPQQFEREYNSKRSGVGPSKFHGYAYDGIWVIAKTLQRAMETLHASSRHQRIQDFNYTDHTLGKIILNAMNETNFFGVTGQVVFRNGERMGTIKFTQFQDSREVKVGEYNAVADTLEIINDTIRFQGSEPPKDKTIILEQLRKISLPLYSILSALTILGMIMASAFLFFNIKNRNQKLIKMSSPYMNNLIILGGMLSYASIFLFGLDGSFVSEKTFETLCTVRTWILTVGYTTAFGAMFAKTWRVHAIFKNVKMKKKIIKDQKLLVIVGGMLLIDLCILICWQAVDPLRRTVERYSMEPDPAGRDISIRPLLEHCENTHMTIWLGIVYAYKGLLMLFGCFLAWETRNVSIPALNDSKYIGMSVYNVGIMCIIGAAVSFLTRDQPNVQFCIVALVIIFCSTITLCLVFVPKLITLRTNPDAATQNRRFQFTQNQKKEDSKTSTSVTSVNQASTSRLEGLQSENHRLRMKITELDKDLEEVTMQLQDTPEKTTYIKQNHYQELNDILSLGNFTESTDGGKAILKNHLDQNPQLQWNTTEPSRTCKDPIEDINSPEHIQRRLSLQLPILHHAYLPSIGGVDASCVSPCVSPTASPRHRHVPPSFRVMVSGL
T2 sequence (P24046 22-479): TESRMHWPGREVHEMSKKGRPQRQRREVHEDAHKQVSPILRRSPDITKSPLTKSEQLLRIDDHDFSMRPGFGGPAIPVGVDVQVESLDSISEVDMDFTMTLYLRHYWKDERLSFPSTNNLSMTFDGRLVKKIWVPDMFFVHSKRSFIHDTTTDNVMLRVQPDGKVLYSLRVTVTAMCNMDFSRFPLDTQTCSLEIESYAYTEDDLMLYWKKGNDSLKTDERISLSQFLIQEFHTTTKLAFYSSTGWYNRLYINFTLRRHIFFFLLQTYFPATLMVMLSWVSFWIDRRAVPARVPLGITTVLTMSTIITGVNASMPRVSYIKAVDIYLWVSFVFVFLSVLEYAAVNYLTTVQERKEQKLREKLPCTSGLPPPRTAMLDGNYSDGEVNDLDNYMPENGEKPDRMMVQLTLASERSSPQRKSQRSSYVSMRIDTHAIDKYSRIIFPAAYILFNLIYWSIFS
T3 sequence (P30531 whole entry): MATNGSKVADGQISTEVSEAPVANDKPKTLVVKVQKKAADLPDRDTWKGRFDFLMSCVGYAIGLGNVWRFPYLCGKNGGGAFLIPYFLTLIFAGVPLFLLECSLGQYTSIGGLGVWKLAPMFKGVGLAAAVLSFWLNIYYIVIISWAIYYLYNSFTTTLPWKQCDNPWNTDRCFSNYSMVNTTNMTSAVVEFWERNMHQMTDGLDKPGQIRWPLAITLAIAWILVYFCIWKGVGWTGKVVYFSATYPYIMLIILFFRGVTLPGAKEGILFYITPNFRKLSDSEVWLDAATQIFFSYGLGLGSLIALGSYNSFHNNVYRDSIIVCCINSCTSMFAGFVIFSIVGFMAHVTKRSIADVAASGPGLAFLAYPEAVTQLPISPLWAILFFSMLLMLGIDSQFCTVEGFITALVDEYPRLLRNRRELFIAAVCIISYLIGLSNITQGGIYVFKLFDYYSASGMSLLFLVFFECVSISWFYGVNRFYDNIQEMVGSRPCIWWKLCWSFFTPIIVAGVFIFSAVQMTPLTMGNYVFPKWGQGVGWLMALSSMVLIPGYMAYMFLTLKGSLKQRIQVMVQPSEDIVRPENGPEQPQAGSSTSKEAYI

Row | SMILES | IC50 (GABAB receptor [1]) | IC50 (GABAA receptor; rat brain synaptic membranes) | agonist or antagonist effect at GABAC receptors (human ρ1 GABAC receptors) | inhibition of radioligand binding at GABAA receptors (GABAA receptor; 100 μM, rat brain cortical homogenate, hydrochloride salt) | inhibition of [^3H]GABA uptake (hGAT-1) | inhibition of [^3H]GABA uptake (hBGT-1) | inhibition of [^3H]GABA uptake (hGAT-2) | inhibition of [^3H]GABA uptake (hGAT-3) | inhibition of the reuptake of GABA (reuptake of GABA) | inhibition of [^3H]GABA uptake (cortical neurons) | inhibition of [^3H]GABA uptake (cortical astrocytes) | inhibition of radioligand binding at GABAB receptors (GABAB receptor [2])
1 | N[C@H]1C[C@@H](C(=O)O)CC1=C(F)F [(1S,3S)-3-amino-4-difluoromethylenyl-1-cyclopentanoic acid] | > 100 µM | > 100 µM |  |  |  |  |  |  |  |  |  | 
2 | Cl.N[C@H]1C[C@@H](C(=O)O)CC1=C(F)F [(1S,3S)-3-amino-4-difluoromethylenyl-1-cyclopentanoic acid hydrochloride salt] |  |  | no effect as an agonist or antagonist | no inhibition of binding was observed; also recorded: nor does it bind | does not inhibit | does not inhibit | does not inhibit | does not inhibit | does not inhibit the reuptake of GABA | does not inhibit | does not inhibit | no inhibition of binding was observed

From patent US9254274B2, “Method of treating Tourette'S disorder with GABA-aminotransferase inactivators” (CATALYST PHARMACEUTICAL PARTNERS, priority 2012, dated 2016)
